PubChem BioAssay (NCI)
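Each compound was tested at five concentrations against cells in 96-well plates for 48 hours. GI50 marks 50% less growth. At the TGI there is no net growth.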

Tests used:
Experiment in all cases: inhibition of tumour cell growth, NCI panel, 48 h
DLD-1 colon = tested on: DLD-1 colon
DMS 273 small cell lung = tested on: DMS 273 small cell lung
HCT-116 colon = tested on: HCT-116 colon
KM20L2 colon = tested on: KM20L2 colon
LXFL 529 NSCLC = tested on: LXFL 529 NSCLC
M19-MEL melanoma = tested on: M19-MEL melanoma
NCI-H226 lung = tested on: NCI-H226 lung
NCI-H23 lung = tested on: NCI-H23 lung
NCI-H460 lung = tested on: NCI-H460 lung
SK-OV-3 ovarian = tested on: SK-OV-3 ovarian
SNB-78 CNS = tested on: SNB-78 CNS
XF 498 CNS = tested on: XF 498 CNS
DMS 114 small cell lung = tested on: DMS 114 small cell lung
MDA-MB-435 = tested on: MDA-MB-435

Compound	TGI (DLD-1 colon)	TGI (DMS 273 small cell lung)	TGI (HCT-116 colon)	TGI (KM20L2 colon)	TGI (LXFL 529 NSCLC)	TGI (M19-MEL melanoma)	TGI (NCI-H226 lung)	TGI (NCI-H23 lung)	TGI (NCI-H460 lung)	TGI (SK-OV-3 ovarian)	TGI (SNB-78 CNS)	TGI (XF 498 CNS)	TGI (DMS 114 small cell lung)	TGI (MDA-MB-435)	GI50 (HCT-116 colon)	GI50 (MDA-MB-435)
Cc1nc2c(n1C(C)(C)C)C(=O)c1ccccc1C2=O	> 100 µM	> 100 µM	> 100 µM	> 100 µM	> 100 µM	76.5 µM	> 100 µM	> 100 µM	> 100 µM	> 100 µM	> 100 µM	> 100 µM	–	–	–	–
COc1ccccc1-c1cc(=O)c2ccccc2[nH]1	> 100 µM	> 100 µM	> 100 µM	> 100 µM	> 100 µM	> 100 µM	> 100 µM	> 100 µM	> 100 µM	> 100 µM	> 100 µM	–	–	–	–	–
O=C(O)CCCCCOc1cccnc1/C=N/NC1=NCCN1	> 100 µM	> 100 µM	> 100 µM	> 100 µM	> 100 µM	> 100 µM	> 100 µM	> 100 µM	> 100 µM	> 100 µM	> 100 µM	> 100 µM	–	–	–	–
CCOc1ccc(/C=C(\Cl)c2ccc(OC)c(OC)c2)cc1	> 100 µM	> 100 µM	> 100 µM	40.1 µM	> 100 µM	> 100 µM	74.8 µM	> 100 µM	–	> 100 µM	> 100 µM	> 100 µM	> 100 µM	–	–	–
C=C1C(=O)OC2(C)C3CCC(C3)C12 (stereo not given)	> 100 µM	> 100 µM	> 100 µM	> 100 µM	–	> 100 µM	> 100 µM	> 100 µM	> 100 µM	> 100 µM	> 100 µM	97.9 µM	> 100 µM	–	–	–
O=C(Nc1nc2ccccc2n1Cc1ccccc1)NC12CC3CC(CC(C3)C1)C2	> 100 µM	55.1 µM	> 100 µM	> 100 µM	> 100 µM	> 100 µM	> 100 µM	> 100 µM	> 100 µM	> 100 µM	49.1 µM	73.8 µM	> 100 µM	–	–	–
COC1=C(N=[N+]=[N-])C(=O)c2ncccc2C1=O	3.14 µM	25.7 µM	6.57 µM	33 µM	3.15 µM	3.8 µM	35.9 µM	16.1 µM	32.6 µM	28.5 µM	12.7 µM	16.4 µM	19.6 µM	4.41 µM	–	–
O=C(N=C1SCCN1C(=O)C(C(F)(F)F)C(F)(F)F)C(C(F)(F)F)C(F)(F)F	–	–	> 100 µM	–	–	–	> 100 µM	> 100 µM	> 100 µM	> 100 µM	–	–	–	> 100 µM	–	–
CCCCCC(=O)N[C@@H](c1ccccc1)C(O)C(=O)OC1C[C@@]2(O)C(OC(=O)c3ccccc3)C3[C@](C)(C(=O)[C@H](O)C(=C1C)C2(C)C)C(OC1OCC(O)C(O)C1O)C[C@H]1OC[C@@]31OC(C)=O (stereo not given in full)	–	–	> 100 µM	–	–	–	> 100 µM	> 100 µM	> 100 µM	57.2 µM	–	–	–	1.78 µM	–	–
CCCCCCCCCCCCCCCCCCNc1ccn(C2OC(COP(=O)(O)OCC3CCC(n4cnc5c(=O)[nH]cnc54)O3)C(O)C2O)c(=O)n1 (stereo not given)	–	–	> 100 µM	–	–	–	> 100 µM	> 100 µM	> 100 µM	> 100 µM	–	–	–	> 100 µM	–	–
O=C1CSc2nc3ccccc3n2/C=N\N1	–	–	> 100 µM	–	–	–	> 100 µM	> 100 µM	> 100 µM	> 100 µM	–	–	–	> 100 µM	–	–
CCOC(=O)c1c(Br)c(-c2ccc(Br)cc2)c(Br)n1C	–	–	34.4 µM	–	–	–	49.4 µM	> 100 µM	> 100 µM	> 100 µM	–	–	–	22.6 µM	14.8 µM	4.26 µM
COC(=O)C1=C(C)NC2(O)C=CC(=O)C3C(=O)N(c4ccccc4)C(=O)C132 (stereo not given)	–	–	> 100 µM	–	–	–	> 100 µM	> 100 µM	> 100 µM	> 100 µM	–	–	–	> 100 µM	–	–
Cn1c(C(C#N)c2nc(Cl)ncc2Br)nc2ccccc21 (stereo not given)	–	–	> 100 µM	–	–	–	> 100 µM	> 100 µM	> 100 µM	> 100 µM	–	–	–	> 100 µM	–	–
Cc1cc(CNC(=O)OCc2ccccc2)c(C)c2c1Oc1ccccc1O2	–	–	> 100 µM	–	–	–	> 93.6 µM	> 100 µM	> 100 µM	51.3 µM	–	–	–	> 100 µM	–	–
CCCCCC(=O)c1ccc2[nH]c3c(C)cc([N+](=O)[O-])c(C)c3c2c1	–	> 100 µM	> 100 µM	–	–	> 100 µM	> 100 µM	> 100 µM	> 100 µM	–	> 100 µM	> 100 µM	> 100 µM	–	–	–
NNc1nc2ccccc2c(=O)n1NC(=O)C(=O)Nc1cccc(C(F)(F)F)c1	–	–	> 100 µM	–	–	–	> 100 µM	> 100 µM	> 100 µM	> 100 µM	–	–	–	> 100 µM	–	–
C=CC1ON(Cc2ccccc2)CCc2cc(OC)c(OC)cc21 (stereo not given)	–	–	> 100 µM	–	–	–	> 100 µM	> 100 µM	> 100 µM	> 100 µM	–	–	–	84.9 µM	–	–
Cn1ccn2c3nc4ccccc4nc3c(=O)c(C#N)c12	> 100 µM	> 100 µM	> 100 µM	–	> 100 µM	> 100 µM	> 100 µM	> 100 µM	> 100 µM	> 100 µM	> 100 µM	> 100 µM	> 100 µM	> 100 µM	–	–
